In one data set the test system is HSV-1. The experiment in a line: Plaque reduction assay in vero cells, HSV-1. The data set is classed as cell-based, Herpes simplex virus. The following applies: Human alphaherpesvirus 1, 48 hour incubation, read-out: ID50 HVS-1. The method, then:
(§1) Herpes simplex virus (HSV) strains were grown and titered at 37°C in vero cells (African Green Monkey Kidney cells) and used for virus work before the tenth passage.
(§2) Cells were grown and maintained in Earle's Minimum Essential Medium (EMEM), Gibco Laboratories, supplemented with 0.75% sodium bicarbonate, 2mM 1-glutamine, Pen-strep. and 5-10% fetal calf serum.
(§3) The titer of HSV strains is determined by a plaque titration method (Roizman and Roane, Virology, 115:75-79, 1961). Tissue culture 24-well petri dishes are seeded with cells and used for assays when approximately 75% monolayer. Volumes (0.1ml) of logarithmic dilutions of the virus strain are inoculated onto each of triplicate wells, and absorbed for one hour with intermittent shaking. […] The number of plaques is counted, the triplicate is averaged, and the number of plaque-forming units per ml is calculated.
(§4) The compounds are tested for activity against the herpes simplex stains using a stock solution of each compound freshly prepared. […] The antiviral efficacy of each compound is determined using the plaque reduction assay described above. […] After a 48-hour incubation period, at 37°C in a 5% CO2 atmosphere, the overlay medium is removed, the cells are stained as described above, and plaques are counted. The counts of triplicate wells are averaged, and the number of plaques in the presence of each drug dilution are calculated. […]
(In general: Plaques are areas of infected cells; plaque reduction assays count them against a control.)

In data set [1] the test system is Herpes simplex virus-1 (HL-34 strain). The data set can be described thus: HSV-1 systemic infection in mice, survival at 21 days. The data set is classed as in vivo. The following applies: i.p.; for Survival: BID for 5 consecutive days, from 3 hours post-infection, 21 days. As to the method:
Groups of ten mice were inoculated intraperitoneally with from 200 to 600 PFU/0.2ml of Herpes simplex virus-1 (HL-34 strain). Different doses of test compound were administered to separate groups of animals on a BID basis for five consecutive days commencing three hours after inoculation. Treatment was by an intraperitoneal route. The experiment was teminated 21 days post inoculation and the number of survivals in each group was counted. The mean survival time (MST, days) was calculated.

For the next data set, the system named is HSV-2. The experiment in a line: Plaque reduction assay in vero cells, HSV-2. It counts as cell-based, Herpes simplex virus. Particulars: Human alphaherpesvirus 2, 48 hour incubation, read-out: ID50 HVS-2. As to the method:
as §1, §2, §3, §4

A further data set concerns HIV (LAV strain). The experiment in a line: HIV in vitro assay in CEM cells, p-24 gag protein ELISA. It counts as cell-based. The method, then: The HIV in vitro assay described as follows was used: The anti-HIV/LAV activity is measured in cultures of CEM-F cells.
In general terms: In an ELISA, binding on a coated surface is turned into a signal by an enzyme label.

Another data set concerns R-MuLV. The experiment in a line: UV-XC plaque assay in SC-1 cells, R-MuLV. It counts as cell-based, murine leukemia virus. As to the method:
(§5) The compounds were evaluated for antiviral activity against murine leukemia virus (MuLV) strains using the UV-XC plaque assay (Rowe, et al., Virology, 42:1136, 1970).
(§6) The MuLV strains were grown in feral mouse cells (SC-1) and used for antiviral tests using the UV-XC plaque assay. Briefly, SC-1 cells are grown as monolayers in 4-well tissue culture plates and inoculated with approximately 50-100 plaque forming units of MuLV in 0.5 ml of 5% EMEM containing 20 µg/ml DEAE/Dextran. After 1 hour adsorbtion, the inoculum is removed and 5 ml of 5% EMEM containing three-fold dilutions of the appropriate drug are added. Five days later, the cultures are UV-irradiated with an ultraviolet lamp and rat XC sarcoma cells are added to the cultures. Three-four days after UV-irradiation, the cell cultures are stained with Giemsa stain and the plaques are enumerated. Antiviral activity is expressed in terms of the reduction in the mean number of UX-XC plaques counted in the drug treated, virus-infected cultures compared with mean number of plaques counted in untreated, virus-infected control cultures.

The subject of another data set is HIV. The experiment in a line: HIV assay in MT-4 cells. The following applies: Virus HIV, Cell-line MT-4; read-out: ID50 (the source's name). The data set is classed as cell-based. As to the method:
(§7) This compound was evaluated for anti-retroviral activity by the methods described in Examples 43 and 44. AZT controls were run simultaneously to confirm the validity of the test.

The next data set relates to MuLV. The experiment in a line: UV-XC plaque assay in SC-1 cells, MuLV. The data set is classed as cell-based, murine leukemia virus. Particulars: Virus MuLV, Cell-line SC-1; read-out: ID50 (the source's name). The method, then:
as §5, §6, §7

The test system of the next data set is SC-1. The data set is classed as cell-based. Particulars: mouse, sc-1 cells.
The next data set has as its system Herpes simplex virus - 2. The data set can be described thus: Survival of mice inoculated with Herpes simplex virus-2, 21 day protocol. The data set is classed as in vivo. As to the method: A preferred example of one of these compounds, known as (S)-HPMPA (Formula 4') was disclosed by DeClercq, et al., in Nature, 1986, 323, pp. 464-467 and earlier by Holy, et al., Nucleic Acids Research, Symposium Series No. 14, 1984, pp. 277-278. Phosphonate compounds which are HPMPA analogs are described in South African Patent 1987/8607. […] In a 21 day protocol 30% of a group of animals treated i.p. with 50 mg/kg/day of (S)-HPMPA survived. [drawing 4]

Where [2] appears, read: Murine leukemia virus, SC1, UV-XC plaque assay, SC-1 cells, read-out: ID50 R-MuLV.

Values after ≈ are worked out from the molar mass of the structure shown. Structures can show the parent of a compound that is named as a salt. Where two headings read alike, the source gives them in different places.

On to `Nc1nc2c(ncn2COCOCP(=O)(O)O)c(=O)[nH]1` [Compound 8, 9-[3-(Phosphonomethoxy)methoxymethyl]guanine disodium salt], for which the IC50 in the data set with HSV-1 amounted to 2.6 µg/mL; in the data set with HSV-2, 11 µg/mL. The Survival in data set [1] (Dose 10 mg/kg/d) is 3/10; in [1] (Dose 100 mg/kg/d) it was 9/10; in data set [1] (Dose 300 mg/kg/d), 10/10. In addition, in data set [1] (HSV-1 systemic infection in mice), the “activity compared with ACV in vivo (in words)” value is reported as “equally as active as ACV”.

As to “9-[2,3-Dideoxy-2,3-didehydro-4-β-phosphonomethoxy-β-D-erythrofuranosyl]adenine ammonium salt [Example 50]”, the IC50 with HIV (LAV strain) (Virus HIV, Cell-line CEM, read-out: ID50 (the source's name)) is 45000 nM; in the data set with R-MuLV (Virus MuLV-R, Cell-line SC-1, read-out: ID50 (the source's name)), 10 nM; in the data set on HIV it was 1500 nM; with MuLV, less than 100 nM. The CC50 in the data set with SC-1 is greater than 100000 nM.

Turning to `Nc1ncnc2c1ncn2C[C@@H](CO)OCP(=O)(O)O` [(S)-HPMPA], the “activity in mice inoculated with Herpes simplex virus - 2 (in words)” value with Herpes simplex virus - 2 (in applicant's hands) is “only slightly active”. The compound further yielded a survived in the data set on Herpes simplex virus - 2 (mice inoculated with Herpes simplex virus - 2, i.p. 50 mg/kg/day, 21 day protocol) of 30%.

`Nc1nc2c(ncn2COCCO)c(=O)[nH]1` [ACV, Acyclovir, reference compound]: the IC50 in the data set on HSV-1 and with HSV-2 was 0.5 µg/mL (≈ 2.22 µM) in each case. Also, the Survival in data set [1] (Dose 100 mg/kg/d) is reported as 7/10; in data set [1] (Dose 200 mg/kg/d) it was 6/7.

With `Cc1cn(C2C=CC(OCP(=O)(O)O)O2)c(=O)[nH]c1=O` [Compound 25, 1-[2,3-Dideoxy-2,3-didehydro-4-phosphonomethoxy-beta-D-erythrofuranosyl]thymine disodium salt], the IC50 in the data set on HIV (LAV strain) (Human immunodeficiency virus 1, CCRF-CEM, 192 h, CEM-F cells, 8 days, p-24 gag protein ELISA, read-out: ID50 HIV) stood at 1.8 µg/mL; in the data set with R-MuLV (setting [2]) it was 0.3 µg/mL.

As to `Cc1cn([C@H]2C[C@H](N=[N+]=[N-])[C@@H](CO)O2)c(=O)[nH]c1=O` [AZT, reference compound], the IC50 with HIV (LAV strain) (Human immunodeficiency virus 1, CCRF-CEM, 192 h, read-out: ID50 HIV) was found to be 0.1 µg/mL; with R-MuLV (setting [2]) it was 0.05 µg/mL.

By CC50 is commonly meant the concentration at which the toxic effect on the cells reaches its halfway point. A low value points to greater toxicity to the cells.

Source of the values: patent EP0398231B1, “Nucleoside analogs” (INSTITUTE OF ORGANIC CHEMISTRY AND BIOCHEMISTRY OF THE …, priority 1989, dated 1990).
